Laboratory results: ChEMBL document CHEMBL4627397 (J Med Chem, 2020)

Columns and labels:
[1] = in vitro; conditions: human, liver microsomes
[2] = in vitro; conditions: human, hepatocytes
Description: Intrinsic clearance in human hepatocytes at 0.2 nmol assessed per million cells up to 240 mins in presence of NADPH by LC-MS/MS analysis

[3] = physchem; conditions: octanol/water, pH 7.4
Description: Octanol/water partition coefficient, log D of compound at pH 7.4 by shake-flask method

[4] = in vitro; conditions: dog, MDCK
Description: Apparent permeability in RRCK cells

microsomal CLint at 1 h, 10 µM [1] [µL/min/mg] | hepatocyte CLint at 4 h [2] [µL/min/1e6 cells] | logD [3] | Papp [4] [×10⁻⁶ cm/s] | SMILES
23 | 6 | 0.3 | 0.2 | CCOC(=O)N1CCC(=C2c3ccc(Cl)cc3CCc3ccc[n+](C)c32)CC1
61 | 62 | 3.9 | – | CCOC(=O)N1C=C/C(=C2/c3ccc(Cl)cc3CCc3cc(O)cnc32)CC1
– | 82 | 3.4 | 78 | CCOC(=O)N1C=C/C(=C2\c3ccc(Cl)cc3CC(O)c3cccnc32)CC1 (configuration not stated)
66 | 67 | 3.1 | – | CCOC(=O)N1C=C/C(=C2\c3ccc(Cl)cc3CCc3cc(O)cnc32)CC1
35 | 18 | 2.8 | 23 | CCOC(=O)N1CC(O)C(=C2c3ccc(Cl)cc3CCc3cccnc32)C(O)C1 (configuration not stated)
– | 3.14 | 1.1 | 78.4 | OC1Cc2cc(Cl)ccc2C(=C2CCNCC2)c2ncccc21 (configuration not stated)
51 | 19 | 3.1 | 22 | CCOC(=O)N1CC/C(=C2/c3ccc(Cl)cc3CCc3cccnc32)C(O)C1 (configuration not stated)

More lines, now with the values behind:

SMILES | microsomal CLint at 1 h, 10 µM [1] [µL/min/mg] | hepatocyte CLint at 4 h [2] [µL/min/1e6 cells] | logD [3] | Papp [4] [×10⁻⁶ cm/s]
CCOC(=O)N1CCC(=C2c3ccc(Cl)cc3CCc3c(CO)ccnc32)CC1 | 283 | 58.6 | 2.6 | 16.2
CCOC(=O)N1CCC(=C2c3ccc(Cl)cc3CCc3cc(O)cnc32)CC1 | 132 | 96 | 3.1 | 11
CCOC(=O)N1CCC(=C2c3ccc(Cl)cc3CCc3ccc(C(F)F)nc32)CC1 | 108 | 48.7 | 4.6 | 7.7
CCOC(=O)N1CCC2(CC1)OC21c2ccc(Cl)cc2CCc2cccnc21 (configuration not stated) | 89 | 26.2 | 2.9 | 17.9
CCOC(=O)N1C(O)CC(=C2c3ccc(Cl)cc3CCc3cccnc32)CC1O (configuration not stated) | 21 | 14 | 2.3 | 19.8
CCOC(=O)N1CCC(=C2c3ccc(Cl)cc3CC(F)c3cccnc32)CC1 (configuration not stated) | 120 | 32 | 4.5 | 13
CCOC(=O)N1CCC(=C2c3ccc(Cl)cc3C(O)Cc3cccnc32)CC1 (configuration not stated) | 157 | 40 | 3.2 | 26.2
CCOC(=O)N1CCC(=C2c3ccc(Cl)cc3C=Cc3cccnc32)CC1 | – | 9 | 2.6 | 98
CCOC(=O)N1C=C/C(=C2/c3ccc(Cl)cc3CCc3cccnc32)CC1 | – | – | 3.6 | 53
CCOC(=O)N1CCC(=C2c3ccc(Cl)cc3CC(O)c3cccnc32)CC1 (configuration not stated) | 132 | 61.5 | 3.3 | 23.7
OC1Cc2cccnc2C(=C2CCNCC2)c2ccc(Cl)cc21 (configuration not stated) | – | < 1.75 | 0.94 | 79.9
CCOC(=O)N1CCC2(CC1)OC21c2ccc(Cl)cc2CCc2ccc[n+]([O-])c21 (configuration not stated) | < 7 | 4.6 | 2.1 | 15.2
CCOC(=O)N1CCC(=C2c3ccc(Cl)cc3CCc3ccc[n+]([O-])c32)CC1 | 48 | 17.8 | 2.8 | 26.8
CCOC(=O)N1C=C/C(=C2\c3ccc(Cl)cc3CCc3cccnc32)CC1 | 68 | – | 4.3 | 40
Clc1ccc2c(c1)CCc1cccnc1C2=C1CCNCC1 [DESLORATADINE] | – | – | 1.3 | 2.8
